Test results: patent US10160753B2, “Indazole compounds as IRAK4 inhibitors” (Aurigene Discovery Technologies Limited, priority 2014, dated 2018)
Where a name gives a salt, the structure may show the parent alone.

Molecular target: T1, recombinant IRAK-4 kinase (Homo sapiens, UniProt Q9NWZ3)
T1 construct: purchased Millipore, USA
T1 sequence (Q9NWZ3 1-460): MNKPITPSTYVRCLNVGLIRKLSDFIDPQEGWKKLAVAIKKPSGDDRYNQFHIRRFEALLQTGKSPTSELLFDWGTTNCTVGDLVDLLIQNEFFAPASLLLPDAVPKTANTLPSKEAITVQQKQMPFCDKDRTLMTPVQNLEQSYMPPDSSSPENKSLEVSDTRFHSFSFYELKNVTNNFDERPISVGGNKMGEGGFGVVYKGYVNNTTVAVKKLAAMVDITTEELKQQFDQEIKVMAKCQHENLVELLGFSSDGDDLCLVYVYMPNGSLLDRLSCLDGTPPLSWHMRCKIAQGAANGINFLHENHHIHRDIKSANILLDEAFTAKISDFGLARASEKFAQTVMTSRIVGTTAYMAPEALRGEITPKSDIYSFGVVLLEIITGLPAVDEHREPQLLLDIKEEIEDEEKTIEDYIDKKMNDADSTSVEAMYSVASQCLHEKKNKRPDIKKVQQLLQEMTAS
Test: IRAK-4 Biochemical Assay (TR-FRET)
Conditions: 30 min pre-incubation, 100 nM Biotin Histone H3, 20 μM ATP, read-out: IC50 values for IRAK4 activity

IC50 [nM] | Structure (SMILES)
< 50 | Cc1cc(-c2nc(C(=O)Nc3cc4cn(C5CCCC5)nc4cc3N3CCOCC3)co2)ccn1 [Example 8, N-(2-cyclopentyl-6-morpholino-2H-indazol-5-yl)-2-(2-methylpyridin-4-yl) oxazole-4-carboxamide]
< 50 | Cc1cc(-c2ccc(C(=O)Nc3cc4cn(C)nc4cc3N3CCCCC3)o2)ccn1 [Example 66, N-(2-methyl-6-(piperidin-1-yl)-2H-indazol-5-yl)-5-(2-methylpyridin-4-yl)furan-2-carboxamide]
< 50 | CC(=O)Nc1cc(-c2nc(C(=O)Nc3cc4cn(C)nc4cc3N3CCCCC3)co2)ccn1 [Example 84, 2-(2-acetamidopyridin-4-yl)-N-(2-methyl-6-(piperidin-1-yl)-2H-indazol-5-yl)oxazole-4-carboxamide]
> 100 | Cn1ncc2cc(NC(=O)c3coc(N4CC[C@H](O)C4)n3)c(C3CC3)cc21 [Example 50, (S)—N-(6-cyclopropyl-1-methyl-1H-indazol-5-yl)-2-(3-hydroxypyrrolidin-1-yl)oxazole-4-carboxamide]
< 50 | COc1cc(-c2nc(C(=O)Nc3cc4cn(C)nc4cc3N3CCCCC3)co2)ccn1 [Example 103, 2-(2-methoxypyridin-4-yl)-N-(2-methyl-6-(piperidin-1-yl)-2H-indazol-5-yl)oxazole-4-carboxamide]
< 50 | Cc1cc(-c2nc(C(=O)Nc3cc4cn(C)nc4cc3N3CCC3)co2)ccn1 [Example 60, N-(6-(azetidin-1-yl)-2-methyl-2H-indazol-5-yl)-2-(2-methylpyridin-4-yl)oxazole-4-carboxamide]
< 50 | Cc1cc(-c2nc(C(=O)Nc3cc4cnn(C)c4cc3N3CCC(O)CC3)co2)cc(C)n1 [Example 114, 2-(2,6-dimethylpyridin-4-yl)-N-(6-(4-hydroxypiperidin-1-yl)-1-methyl-1H-indazol-5-yl)oxazole-4-carboxamide]
< 50 | Cn1cc2cc(NC(=O)c3cccc(N4CC[C@H](O)C4)n3)c(N3CCCCC3)cc2n1 [Example 39, (S)-6-(3-hydroxypyrrolidin-1-yl)-N-(2-methyl-6-(piperidin-1-yl)-2H-indazol-5-yl)picolinamide]
< 50 | Nc1ccc(-c2cccc(C(=O)Nc3cc4cn(C5CCCC5)nc4cc3N3CCOCC3)n2)cn1 [Example 9, 6′-amino-N-(2-cyclopentyl-6-morpholino-2H-indazol-5-yl)-[2,3′-bipyridine]-6-carboxamide 2,2,2-trifluoroacetate]
< 50 | Cn1cc2cc(NC(=O)c3coc(-c4ccnc(N)c4)n3)c(N3CCCC(F)C3)cc2n1 (centres unmarked) [Example 104, 2-(2-aminopyridin-4-yl)-N-(6-(3-fluoropiperidin-1-yl)-2-methyl-2H-indazol-5-yl)oxazole-4-carboxamide hydrochloride]
< 50 | CC(O)CNc1cccc(C(=O)Nc2cc3cn(C)nc3cc2N2CCCCC2)n1 (centres unmarked) [Example 57, 6-((2-hydroxypropyl)amino)-N-(2-methyl-6-(piperidin-1-yl)-2H-indazol-5-yl)picolinamide]
< 50 | O=C(Nc1cc2cn(C3CCCC3)nc2cc1C1CC1)c1cccc(-c2cn[nH]c2)n1 [Example 7, N-(2-cyclopentyl-6-cyclopropyl-2H-indazol-5-yl)-6-(1H-pyrazol-4-yl) picolinamide]
< 50 | Cn1cc2cc(NC(=O)c3cccc(N4CC[C@@H](O)C4)n3)c(N3CCCCC3)cc2n1 [Example 38, (R)-6-(3-hydroxypyrrolidin-1-yl)-N-(2-methyl-6-(piperidin-1-yl)-2H-indazol-5-yl)picolinamide]
< 50 | Cn1ncc2cc(NC(=O)c3coc(-c4ccnc(N)c4)n3)c(N3CCC(CO)CC3)cc21 [Example 99, 2-(2-aminopyridin-4-yl)-N-(6-(4-(hydroxymethyl)piperidin-1-yl)-1-methyl-1H-indazol-5-yl)oxazole-4-carboxamide hydrochloride]
< 50 | Cc1cc(-c2nc(C(=O)Nc3cc4cn(C5CCCC5)nc4cc3N3CCCCC3)co2)ccn1 [Example 4, N-(2-cyclopentyl-6-(piperidin-1-yl)-2H-indazol-5-yl)-2-(2-methylpyridin-4-yl) oxazole-4-carboxamide]
< 50 | Cc1cc(-c2nc(C(=O)Nc3cc4cnn(C)c4cc3N3CCCCC3)co2)ccn1 [Example 3, N-(1-methyl-6-(piperidin-1-yl)-1H-indazol-5-yl)-2-(2-methylpyridin-4-yl) oxazole-4-carboxamide]
< 50 | Cc1cc(-c2nc(C(=O)Nc3cc4cn(C)nc4cc3-c3cccc(F)c3)co2)ccn1 [Example 10, N-(6-(3-fluorophenyl)-2-methyl-2H-indazol-5-yl)-2-(2-methylpyridin-4-yl)oxazole-4-carboxamide]
< 50 | COCCn1cc2cc(NC(=O)c3coc(-c4ccnc(C)c4)n3)c(N3CCC(CO)CC3)cc2n1 [Example 96, N-(6-(4-(hydroxymethyl)piperidin-1-yl)-2-(2-methoxyethyl)-2H-indazol-5-yl)-2-(2-methylpyridin-4-yl)oxazole-4-carboxamide]
< 50 | Cn1cc2cc(NC(=O)c3coc(-c4ccnc(N)c4)n3)c(N3CCC(O)CC3)cc2n1 [Example 93, 2-(2-aminopyridin-4-yl)-N-(6-(4-hydroxypiperidin-1-yl)-2-methyl-2H-indazol-5-yl)oxazole-4-carboxamide hydrochloride]
< 50 | Cc1cc(-c2nc(C(=O)Nc3cc4c(C)nn(C)c4cc3N3CCCCC3)co2)ccn1 [Example 74, N-(1,3-dimethyl-6-(piperidin-1-yl)-1H-indazol-5-yl)-2-(2-methylpyridin-4-yl)oxazole-4-carboxamide]
> 100 | Cn1ncc2cc(NC(=O)c3coc(N4CC[C@H](N)C4)n3)c(C3CC3)cc21 [Example 51, (S)-2-(3-aminopyrrolidin-1-yl)-N-(6-cyclopropyl-1-methyl-1H-indazol-5-yl)oxazole-4-carboxamide]
50 to 100 | Cn1cc2cc(NC(=O)c3cccc(N4CC[C@H](N)C4)n3)c(N3CCCCC3)cc2n1 [Example 33, (S)-6-(3-aminopyrrolidin-1-yl)-N-(2-methyl-6-(piperidin-1-yl)-2H-indazol-5-yl)picolinamide 2,2,2-trifluoroacetate]
< 50 | COc1cc(-c2nc(C(=O)Nc3cc4cn(C)nc4cc3N3CCC(CO)CC3)co2)ccn1 [Example 97, N-(6-(4-(hydroxymethyl)piperidin-1-yl)-2-methyl-2H-indazol-5-yl)-2-(2-methoxypyridin-4-yl)oxazole-4-carboxamide]
< 50 | Cn1cc2cc(NC(=O)c3coc(-c4ccnc(Cl)c4)n3)c(N3CCCCC3)cc2n1 [Example 15, 2-(2-chloropyridin-4-yl)-N-(2-methyl-6-(piperidin-1-yl)-2H-indazol-5-yl)oxazole-4-carboxamide hydrochloride]
< 50 | C[C@@H](O)Cn1cc(-c2cccc(C(=O)Nc3cc4cn(C)nc4cc3N3CCCCC3)n2)cn1 [Example 43, (R)-6-(1-(2-hydroxypropyl)-1H-pyrazol-4-yl)-N-(2-methyl-6-(piperidin-1-yl)-2H-indazol-5-yl)picolinamide]

Structure (SMILES) | IC50 [nM]
CCOP(=O)(OCC)OC1CCN(c2cc3c(cnn3C)cc2NC(=O)c2coc(-c3ccnc(C)c3)n2)CC1 [Example 128, Diethyl (1-(1-methyl-5-(2-(2-methylpyridin-4-yl)oxazole-4-carboxamido)-1H-indazol-6-yl)piperidin-4-yl) phosphate] | 50 to 100
